Source: article PMC3630091, “A Mechanistic Paradigm for Broad-Spectrum Antivirals that Target Virus-Cell Fusion” (PLoS Pathogens, 2013)
Like-named read-outs stand apart in the source and are kept apart here.

Legend:
RVFV = assay: microbe, parasite or virus in culture; type: cell-based, Rift Valley fever MP-12 (vaccine strain); settings: Rift Valley fever virus, 10 min, read-out: IC50 RVFV
[1] = Membrane partition into POPC LUV (fluorescence); settings: for IL / Iw: POPC LUV, fluorescence intensity ratio from curve fitting
[2] = Singlet oxygen quenching measurements; type: physicochemical; settings: 355 nm with C60 as external sensitizer; error is one standard deviation
EBOV = assay: microbe, parasite or virus in culture; type: cell-based, Ebola Zaire; settings: Zaire ebolavirus, 10 min, read-out: IC50 EBOV
SFV = assay: microbe, parasite or virus in culture; type: cell-based; settings: Semliki Forest virus, BHK, 10 min, read-out: IC50 SFV
in vitro = settings: human
NiV = assay: microbe, parasite or virus in culture; type: cell-based, Nipah virus Malaysia
[3] = Acrylamide quenching in POPC vesicles; type: physicochemical; settings: >50-fold molar excess of lipid; 3 mM POPC vesicles
[4] = Singlet oxygen quantum yield measurements; type: physicochemical; settings: for 1O2 QY 355 nm: in CD2Cl2, excitation 355 nm; for 1O2 QY 355 nm / 1O2 QY 532 nm: error is one standard deviation; for 1O2 QY 532 nm: in CD2Cl2, excitation 532 nm
[5] = Absorbance spectra / UV-visible spectra integration; type: physicochemical; settings: for Abs Max (λmax): 100 µM in DMSO; for AUC (400-750 nm): integrated absorption divided by concentration, normalized relative to LJ001 (LJ001 = 100)
enveloped viruses = tested on: enveloped viruses; set-up: method as in PMID 20133606; settings: non-cytotoxic concentrations; read-out: IC50, entry of numerous enveloped viruses; cited from earlier work
[6] = Clinical observations after single dose in PK study; type: in vivo, female Balb/c mice
Method: Dose administration. […] These mice were replaced and the dose level was reduced to 5 mg/kg. […] Hypoactivity was the only clinical observation noted in some of the mice treated with the 3 test articles at 10 and 100 mg/kg po. […] These animals were replaced and administered with the lower ip dose level of 1.25 mg/kg and underwent blood collections. Mice received single ip doses of 1.25 mg/kg (JL109 and JL118) or 5 mg/kg (JL122) and po doses of 10 mg/kg (JL109, JL118, JL122), 50 mg/kg (JL109, JL118), or 100 mg/kg (JL109, JL118, JL122).

[7] = Membrane partition into HIV membrane-like mixture LUV (fluorescence); settings: for IL / Iw: HIV-like mixture LUV, fluorescence intensity ratio from curve fitting
RABV = assay: microbe, parasite or virus in culture; type: cell-based; settings: Lyssavirus rabies, 10 min, read-out: IC50 RABV
NDV = assay: microbe, parasite or virus in culture; type: cell-based, Newcastle disease virus; settings: avian paramyxovirus 1, 10 min
[8] = tested on: VSV-ΔG-rluc pseudotyped with NiV envelope glycoproteins, F and G
VSV = assay: microbe, parasite or virus in culture; type: cell-based; settings: Vesicular stomatitis virus, 10 min, read-out: IC50 VSV
HIV = assay: microbe, parasite or virus in culture; type: cell-based; settings: Human immunodeficiency virus 1, 10 min
HeV = assay: microbe, parasite or virus in culture; type: cell-based, Hendra virus; settings: Henipavirus hendraense, 10 min, read-out: IC50 HeV
[9] = tested on: influenza virus A (A/PR/8/34 H1N1); settings: 5 µM, light 1 h
CMV = assay: microbe, parasite or virus in culture; type: cell-based, Cytomegalovirus (strain T3259)
H1N1 = assay: microbe, parasite or virus in culture; type: cell-based, Influenza A A/PR/8/34 (H1N1); settings: read-out: IC50 H1N1
HSV = assay: microbe, parasite or virus in culture; type: cell-based, Herpes simplex virus-1; settings: Human alphaherpesvirus 1, 10 min
HIV-1JR-CSF = type: cell-based
RVFV ZH501 = type: in vivo, Balb/c mice
Ad5 = type: cell-based, Adenovirus serotype 5; settings: non-enveloped virus; 10 min white light exposure of treated virus
[10] = Henipavirus nipahense, 10 min, read-out: IC50 NiV, 10 min white light exposure of treated virus
[11] = read-out: IC50 NiV, 10 min white light exposure of treated virus
[12] = read-out: IC50 ± SD (nM) (N=x) NDV
[13] = read-out: IC50 ± SD (nM) (N=x) HIV
[14] = Human betaherpesvirus 5, 10 min, read-out: IC50 CMV, 10 min white light exposure of treated virus
[15] = Influenza A virus, H1N1, 10 min
[16] = read-out: IC50 ± SD (nM) (N=x) HSV

Compound	IC50 (RVFV) [nM]	IL / Iw [1]	kT × 10-7 [2]	IC50 (EBOV) [nM]	IC50 (SFV) [nM]	CC50 (in vitro) [nM]	IC50 (NiV; [10]) [nM]	IC50 (NiV; [11]) [nM]	1O2 QY 355 nm [4]	1O2 QY 532 nm [4]	Abs Max (λmax) [5] [nm]	AUC (400-750 nm) [5]	clinical observations ([6]; single dose 10 mg/kg ip)	Kp at 10 min, 50 µM [7]	IL / Iw [7]	IC50 (RABV) [nM]	IC50 (NDV; read-out: IC50 NDV) [nM]	IC50 (NDV; [12]) [nM]	IC50 (VSV) [nM]	IC50 (HIV; read-out: IC50 HIV) [nM]	further results
C=CCN1C(=O)/C(=C/c2ccc(-c3ccccc3)o2)SC1=S [LJ001, (Z)-3-allyl-5-((5-phenylfuran-2-yl)methylene)-2-thioxothiazolidin-4-one]	20	2.29	0.189 ± 0.010 M-1s-1	900	537	11900	47.5	48	0.20 ± 0.02	0	455	100	2 were sacrificed in moribund condition and 1 was found dead	5190	2.41	5290	95	181 ± 105	298	133	fraction protected from the water-soluble quencher (acrylamide) [3]: over 85%; clearance (Pharmacokinetics in mice; female, Balb/c, mouse, in vivo): ~700 mL/min/kg; half-life (Pharmacokinetics in mice; female, Balb/c, mouse, in vivo): 12 min; time post-dose up to which plasma levels were detectable (Pharmacokinetics in mice; ip 5 mg/kg): ≤ 0.5 h; time post-dose up to which plasma levels were detectable (Pharmacokinetics in mice; iv 10 mg/kg): up to 1 hr; IC50 (enveloped viruses): ≤ 500 nM; clinical observations ([6]; single dose 5 mg/kg ip): appeared normal; t1/2 (inhibition half-life, time-of-addition) [8]: 67 min; IC50 (HIV; [13]): 182 ± 244 nM; IC50 (HeV): 18 nM; increase in the number of oxidized forms of unsaturated phospholipids compared to LJ025-treated samples [9]: up to 300 fold; IC50 (CMV; [14]): 147 nM; IC50 (H1N1; [15]): 25.7 nM; IC50 (H1N1): 26 nM; IC50 (HSV; read-out: IC50 HSV): 20 nM; IC50 (HSV; [16]): 35.3 ± 48.3 nM
CCN1C(=S)O/C(=C\c2ccc(-c3ccccc3OC)o2)C1=S [JL103, (Z) 3-Ethyl-5-[5-(2-methoxyphenyl)-furan-2-ylmethylene]oxazolid-ine-2,4-dithione]	3	14.78	0.636 ± 0.030 M-1s-1	185	44	9140	3.9	4	0.36 ± 0.02	0.30 ± 0.03	515	153	appeared normal	310	68.29	260	4	5.7 ± 6.4	11	13	reduction of antiviral activity at physiological Hct (HIV-1JR-CSF): > 50%; Kp at 10 min, 50 µM [1]: 580; time-to-death / survival compared to untreated controls (RVFV ZH501; 20 pfu RVFV ZH501 IP, IP once a day for 7 days from 1 h post-challenge, JL118 1.25 mg/kg, JL122 and JL103 10 mg/kg): no significant effect on survival; Median survival (RVFV ZH501; 50 pfu RVFV ZH501 IP, 10 mg/kg IP at 1, 12, 24 and 48 h post-challenge, n = 5): 3 days; bioavailability (Pharmacokinetics in mice; female, Balb/c, mouse, in vivo, ip, 10 mg/kg): ~50%; bioavailability (Pharmacokinetics in mice; female, Balb/c, mouse, in vivo, po, 100 mg/kg): 3.1 to 105%; improvements in relevant pharmacokinetic (PK) parameters compared to LJ001 (Pharmacokinetics in mice; half-life, AUC, bioavailability, clearance): > 10 fold; QY at 355 nm, times higher than LJ001 ([4]; 355 nm): about 2 times; total integrated absorption (AUC), times that of LJ001 ([5]; λ = 400 to 750 nm): 1.53 times; IC50 Ad5 (Ad5): inactive; IC50 (HIV; [13]): 12.2 ± 9.7 nM; IC50 (HeV): 0.5 nM; IC50 (CMV; [14]): 5 nM; IC50 (CMV; read-out: IC50 CMV, 10 min white light exposure of treated virus): 4 nM; IC50 (H1N1; [15]): 1.7 nM; IC50 (H1N1): 2 nM; IC50 (HSV; read-out: IC50 HSV): 2 nM; IC50 (HSV; [16]): 1.9 ± 2.5 nM
